# According to PMC8913687, “Novel indolic AMPK modulators induce vasodilatation through activation of the AMPK–eNOS–NO pathway” (Scientific Reports, 2022):
# pKi: −log10 of the molar value. Like-named read-outs stand apart in the source and are kept apart here.
# Experiments:
# AMPKα1β1γ1 [1] = biological target: T1, AMPKα1β1γ1 (Homo sapiens, UniProt Q13131+Q9Y478); test: ADP-Glo kinase assay with SAMS peptide, Lineweaver-Burk kinetics vs ATP; binding also shown by SPR ([…] RU at […]); format: biochemical
# T1 construct: gene PRKAA1; recombinant AMPK isoform α1β1γ1; with AMPK β1 (PRKAB1) and γ1 (PRKAG1)
# T1 sequence (Q13131 whole entry, canonical isoform): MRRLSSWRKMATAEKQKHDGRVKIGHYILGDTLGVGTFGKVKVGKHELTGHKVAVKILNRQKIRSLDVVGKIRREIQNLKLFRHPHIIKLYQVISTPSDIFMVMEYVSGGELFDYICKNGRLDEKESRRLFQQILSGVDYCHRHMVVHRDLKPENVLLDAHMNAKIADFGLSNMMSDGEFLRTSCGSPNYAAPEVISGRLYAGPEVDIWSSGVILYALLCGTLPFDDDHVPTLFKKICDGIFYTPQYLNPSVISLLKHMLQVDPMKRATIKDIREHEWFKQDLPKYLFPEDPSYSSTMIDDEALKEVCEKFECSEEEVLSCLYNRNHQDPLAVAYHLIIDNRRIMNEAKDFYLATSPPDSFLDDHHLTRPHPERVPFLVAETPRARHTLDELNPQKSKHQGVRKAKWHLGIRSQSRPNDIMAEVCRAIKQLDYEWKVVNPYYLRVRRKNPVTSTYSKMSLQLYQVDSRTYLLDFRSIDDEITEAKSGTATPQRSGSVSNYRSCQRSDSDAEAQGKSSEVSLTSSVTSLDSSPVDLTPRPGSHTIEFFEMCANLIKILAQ
# T1 sequence (Q9Y478 2-270): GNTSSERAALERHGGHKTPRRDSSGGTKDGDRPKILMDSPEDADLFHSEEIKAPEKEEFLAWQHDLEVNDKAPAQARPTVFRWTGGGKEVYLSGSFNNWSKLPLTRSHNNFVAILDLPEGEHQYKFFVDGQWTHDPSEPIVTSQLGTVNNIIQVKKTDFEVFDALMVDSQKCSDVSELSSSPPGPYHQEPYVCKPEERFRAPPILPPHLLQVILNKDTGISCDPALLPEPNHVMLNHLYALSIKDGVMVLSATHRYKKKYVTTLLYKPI
# T1 sequence (P54619 whole entry partner, canonical isoform): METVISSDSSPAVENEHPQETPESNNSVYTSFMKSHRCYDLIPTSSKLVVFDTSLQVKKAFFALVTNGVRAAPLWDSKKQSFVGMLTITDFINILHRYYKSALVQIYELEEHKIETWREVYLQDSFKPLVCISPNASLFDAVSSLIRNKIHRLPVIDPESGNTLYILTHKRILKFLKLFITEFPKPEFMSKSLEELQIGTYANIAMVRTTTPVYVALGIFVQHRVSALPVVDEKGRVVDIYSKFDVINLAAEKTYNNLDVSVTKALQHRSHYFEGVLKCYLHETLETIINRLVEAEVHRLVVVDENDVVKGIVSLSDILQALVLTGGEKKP
# AMPKα1β1γ1 [2] = biological target: T1, AMPKα1β1γ1; test: SPR at […]; also […] inhibition at […] in ADP-Glo kinase assay; format: binding
# AMPKα1β1γ1 [3] = biological target: T1, AMPKα1β1γ1; test: SPR, […] series and competition with […] ATP; format: binding
# AMPKα1β1γ1 [4] = biological target: T1, AMPKα1β1γ1; test: SPR at […]; also […] inhibition at […] in ADP-Glo kinase assay; format: binding; remark: listed apart in the source
smiles,measurement,setting,value
"O=C(O)c1[nH]c2ccccc2c1-c1ccc(OCc2ccccc2)cc1 [IND6, 3-(4-(Benzyloxy)phenyl)-1H-indole-2-carboxylic acid]",pKi,AMPKα1β1γ1 [1],5.16
O=C(O)c1[nH]c2ccccc2c1-c1ccc(Oc2ccccc2)cc1 [IND8],Binding 100 μM (RU)^b / AMPK α1:β1:γ1,AMPKα1β1γ1 [2],14.6 RU
CNC(=O)c1ccccc1Oc1nc(Nc2cc(OC)c(OC)c(OC)c2)ncc1Br [SBI-0206965],"SPR, 10-100 μM series and competition with 200 μM ATP",AMPKα1β1γ1 [3],"sensorgrams showed a progressive increase in the binding, which was much larger for SBI-0206965"
O=C(O)c1[nH]c2ccccc2c1-c1ccc(-c2ccccc2)cc1 [IND7],Binding 100 μM (RU)^b / AMPK α1:β1:γ1,AMPKα1β1γ1 [4],13.6 RU
